Experimental data taken from patent publication US11905251B1, “1-cyclopropyl-6-fluoro-7-(4-(2-hydroxy-3-(naphthalen-2-yloxy)propylpiperazin-1-yl)-4-oxo-1,4-dihydroquinoline-3-carboxylic acid as an eco-friendly insecticidal agent against Spodoptera littoralis (boisd.)” (priority 2023, dated 2024).
In brackets after ≈: the same amount, converted by molar mass.

System: Spodoptera littoralis (Boisd.) 2nd and 4th instar larvae
Assay: Insecticidal bioassay screening (castor leaf dip, larval mortality)
Assay type: in vivo
Details: for Toxic ratio: fenoxycarb's LC50 / compound's LC50 × 100
Protocol: Five concentrations (200, 100, 50, 25, 12.5 ppm) were designed for this synthetic compound and the reference fenoxycarb compound as the dynamic ingredients based on ppm via diluting the commercial formulation.
In this experiment, castor leaves are immersed in each of the previously prepared concentrations of the components for 10 seconds and then left to dry for 60 minutes. Larvae of the second and fourth instars of each checked strain are prepared with treated leaves in gauze-covered glass containers for 72 hrs. An untreated control is made in which leaves are dipped in triton x-100 and distilled water only. Then the preserved leaves were removed & fresh, untreated leaves were provided for 72 hours. Three replicates (10 larvae each) were checked for each concentration. Daily inspection was carried out for all treatments and mortality percentages were recorded 3 days (72 hours) after treatment. The average mortality percentage was corrected employing Abbott's formula. The corrected mortality rate for each of the previously synthesized compounds is statistically calculated according to Finney (1970). Through this rate, the corresponding concentration test lines (LDP lines) are assessed. Fifty and ninety percent mortality are determined, and the regression values for the checked products were previously evaluated.

[1] = Spodoptera littoralis, foliar, 72 h, 2nd instar larvae of S. littoralis, after 72 h of treatment
[2] = Spodoptera littoralis, foliar, 72 h, 4th instar larvae of S. littoralis, after 72 h of treatment
[3] = Spodoptera littoralis, foliar, against Spodoptera littoralis under laboratory conditions (instar not given)

| Structure (SMILES) | LC50 (in vivo) | Toxic ratio (2nd instar larvae, 72 h) | Toxic ratio (4th instar larvae, 72 h) | LC50 [1] [µg/mL] | LC50 [2] [µg/mL] | LC50 [3] [µg/mL] | activity against Spodoptera littoralis (in words) (compared with reference insecticide fenoxycarb) |
| --- | --- | --- | --- | --- | --- | --- | --- |
| O=C(O)c1cn(C2CC2)c2cc(N3CCN(CC(O)COc4ccc5ccccc5c4)CC3)c(F)cc2c1=O (stereo not shown) [listing 1 of 2 here] | about 103.01 ppm |  |  |  |  |  |  |
| O=C(O)c1cn(C2CC2)c2cc(N3CCN(CC(O)COc4ccc5ccccc5c4)CC3)c(F)cc2c1=O (stereo not shown) [listing 2 of 2 here] | about 44.08 ppm |  |  |  |  |  |  |
| O=C(O)c1cn(C2CC2)c2cc(N3CCN(CC(O)COc4ccc5ccccc5c4)CC3)c(F)cc2c1=O (stereo not shown) [Compound 7] |  | 6.1 | 41.9 | 44.1 (≈ 82.9 µM) | 103 (≈ 194 µM) | 44.1 (≈ 82.9 µM) | active against Spodoptera littoralis |
| CCOC(=O)NCCOc1ccc(Oc2ccccc2)cc1 [Fenoxycarb, reference compound] |  | 100 | 1 | 2.73 (≈ 9.06 µM) | 43.2 (≈ 143 µM) | 2.73 (≈ 9.06 µM) |  |
